According to patent US8962596B2 (Array BioPharma Inc., priority 2010, dated 2015):
Counter-ions that a name gives are not always drawn.

Experiments:
Format in all cases: biochemical
Human Tyk2 kinase domain = molecular target: T1, Human Tyk2 kinase domain (Homo sapiens, UniProt P29597); experiment: Tyk2 Inhibition Assay (Omnia kinase fluorescence peptide substrate assay); conditions: averaged IC50 ranges; assay of Example A; 10 μM (Km app) or 1 mM ATP, 2 nM Tyk2
T1 construct: comprising amino acids 886 to 1187 with 10 additional histidine residues; 10xHis (histidine tag) (C, cleaved yes); made in house
T1 sequence (P29597 886-1187): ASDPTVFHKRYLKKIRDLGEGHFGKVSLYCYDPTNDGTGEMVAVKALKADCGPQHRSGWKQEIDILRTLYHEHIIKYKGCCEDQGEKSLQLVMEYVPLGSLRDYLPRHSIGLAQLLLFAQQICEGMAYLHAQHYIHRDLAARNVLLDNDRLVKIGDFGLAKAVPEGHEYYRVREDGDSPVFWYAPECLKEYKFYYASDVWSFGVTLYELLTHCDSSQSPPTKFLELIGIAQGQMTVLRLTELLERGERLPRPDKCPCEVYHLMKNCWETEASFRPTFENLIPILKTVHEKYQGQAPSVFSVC
Summary of the method: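 2 nM His-tag-cleaved kinase domain (aa 886–1187) with 8 μM Omnia Y12 peptide, 10 μM (Km app) or 1 mM ATP, pH 7.4 HEPES/10 mM MgCl2, 2% DMSO. Fluorescence (ex 360/em 485 nm) every 50 s for 45 min; IC50 from 4-parameter fit of POC, top dose 10 μM.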

JAK1 = molecular target: T2, JAK1 (Homo sapiens, UniProt P23458); experiment: JAK1 Inhibition Assay (Omnia kinase fluorescence peptide substrate assay); conditions: averaged IC50 ranges; assay of Example B; 40 μM (Km app) or 1 mM ATP, 15 nM JAK1
T2 construct: purchased Invitrogen Corporation, Carlsbad, Calif; PV4775
T2 sequence (P23458 whole entry): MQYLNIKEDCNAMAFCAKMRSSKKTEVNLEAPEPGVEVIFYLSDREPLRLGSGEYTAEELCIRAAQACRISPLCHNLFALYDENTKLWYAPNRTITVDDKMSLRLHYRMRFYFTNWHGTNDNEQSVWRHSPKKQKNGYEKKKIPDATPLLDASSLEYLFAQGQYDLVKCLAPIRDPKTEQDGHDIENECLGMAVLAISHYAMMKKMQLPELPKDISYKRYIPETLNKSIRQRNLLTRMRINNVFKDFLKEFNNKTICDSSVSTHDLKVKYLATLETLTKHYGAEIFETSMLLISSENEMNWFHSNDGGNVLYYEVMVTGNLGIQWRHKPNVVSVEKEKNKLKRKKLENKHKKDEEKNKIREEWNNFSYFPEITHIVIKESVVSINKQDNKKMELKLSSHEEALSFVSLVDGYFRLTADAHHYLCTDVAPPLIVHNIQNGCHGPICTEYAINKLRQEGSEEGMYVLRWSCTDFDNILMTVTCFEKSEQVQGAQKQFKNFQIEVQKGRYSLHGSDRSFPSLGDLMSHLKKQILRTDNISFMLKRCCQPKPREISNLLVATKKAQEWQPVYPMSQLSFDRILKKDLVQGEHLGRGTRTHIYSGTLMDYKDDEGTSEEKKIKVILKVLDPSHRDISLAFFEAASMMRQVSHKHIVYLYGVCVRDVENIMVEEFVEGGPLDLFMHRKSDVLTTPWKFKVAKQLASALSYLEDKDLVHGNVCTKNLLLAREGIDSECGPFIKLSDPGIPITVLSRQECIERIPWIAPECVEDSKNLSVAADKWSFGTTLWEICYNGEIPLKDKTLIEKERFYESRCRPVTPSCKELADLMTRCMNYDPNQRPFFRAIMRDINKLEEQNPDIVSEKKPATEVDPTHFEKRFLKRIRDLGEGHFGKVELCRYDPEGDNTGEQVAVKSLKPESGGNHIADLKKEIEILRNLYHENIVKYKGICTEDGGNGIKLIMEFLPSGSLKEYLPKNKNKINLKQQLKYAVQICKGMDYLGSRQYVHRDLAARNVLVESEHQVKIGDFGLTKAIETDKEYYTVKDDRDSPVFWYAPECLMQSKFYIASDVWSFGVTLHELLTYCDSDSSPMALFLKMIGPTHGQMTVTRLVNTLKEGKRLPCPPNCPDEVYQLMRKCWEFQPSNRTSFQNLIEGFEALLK

JAK2 = molecular target: T3, JAK2 (Homo sapiens, UniProt O60674); experiment: JAK2 Inhibition Assay (Omnia kinase fluorescence peptide substrate assay); conditions: averaged IC50 ranges; assay of Example C; 25 μM (Km app) or 1 mM ATP, 5 nM JAK2
T3 construct: purchased Invitrogen Corporation, Carlsbad, Calif; PV4288
T3 sequence (O60674 whole entry): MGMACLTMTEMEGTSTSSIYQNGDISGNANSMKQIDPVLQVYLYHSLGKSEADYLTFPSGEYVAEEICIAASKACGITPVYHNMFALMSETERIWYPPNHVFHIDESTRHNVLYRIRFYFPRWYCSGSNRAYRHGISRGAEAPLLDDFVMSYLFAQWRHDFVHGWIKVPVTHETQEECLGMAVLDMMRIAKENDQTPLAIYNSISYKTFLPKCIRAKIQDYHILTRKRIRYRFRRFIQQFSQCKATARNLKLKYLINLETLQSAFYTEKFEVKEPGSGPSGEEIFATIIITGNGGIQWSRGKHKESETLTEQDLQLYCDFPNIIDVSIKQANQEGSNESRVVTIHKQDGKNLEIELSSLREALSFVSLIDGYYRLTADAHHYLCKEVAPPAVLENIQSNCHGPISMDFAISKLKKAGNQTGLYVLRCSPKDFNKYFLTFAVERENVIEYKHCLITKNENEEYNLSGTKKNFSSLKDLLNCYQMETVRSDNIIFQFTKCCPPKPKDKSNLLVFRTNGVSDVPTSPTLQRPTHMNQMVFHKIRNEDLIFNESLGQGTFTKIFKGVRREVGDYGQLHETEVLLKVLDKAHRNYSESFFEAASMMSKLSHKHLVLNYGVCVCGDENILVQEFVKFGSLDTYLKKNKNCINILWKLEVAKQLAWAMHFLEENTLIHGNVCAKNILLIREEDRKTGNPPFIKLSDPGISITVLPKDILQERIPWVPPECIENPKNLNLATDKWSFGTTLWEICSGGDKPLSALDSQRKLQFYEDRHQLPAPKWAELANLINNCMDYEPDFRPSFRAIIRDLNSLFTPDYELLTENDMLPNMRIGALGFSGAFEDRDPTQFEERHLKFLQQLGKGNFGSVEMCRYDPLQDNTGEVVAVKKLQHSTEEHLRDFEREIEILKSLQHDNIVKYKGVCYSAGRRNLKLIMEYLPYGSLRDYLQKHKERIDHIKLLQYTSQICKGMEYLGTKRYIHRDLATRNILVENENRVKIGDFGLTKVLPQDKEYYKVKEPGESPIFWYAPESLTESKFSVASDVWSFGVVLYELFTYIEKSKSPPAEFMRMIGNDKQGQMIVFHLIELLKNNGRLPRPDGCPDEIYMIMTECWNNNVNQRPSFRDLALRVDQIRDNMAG
Summary of the method: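 5 nM JAK2 phosphorylated 10 μM Omnia Y7 peptide with ATP at 25 μM (Km app) or 1 mM, in 25 mM HEPES pH 7.4, 10 mM MgCl2, 0.01% Triton X-100, 1 mM DTT, 2% DMSO. Fluorescence (360/485 nm) was read every 50 s for 45 min. 10-point 3-fold series from 10 μM; POC versus uninhibited and background controls, 4-parameter logistic IC50.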

JAK3 = molecular target: T4, JAK3 (Homo sapiens, UniProt P52333); experiment: JAK3 Inhibition Assay (Omnia kinase fluorescence peptide substrate assay); conditions: averaged IC50 ranges; assay of Example D; 10 μM (Km app) or 1 mM ATP, 2.5 nM JAK3
T4 construct: purchased Invitrogen Corporation, Carlsbad, Calif; PV4080
T4 sequence (P52333 1-1124): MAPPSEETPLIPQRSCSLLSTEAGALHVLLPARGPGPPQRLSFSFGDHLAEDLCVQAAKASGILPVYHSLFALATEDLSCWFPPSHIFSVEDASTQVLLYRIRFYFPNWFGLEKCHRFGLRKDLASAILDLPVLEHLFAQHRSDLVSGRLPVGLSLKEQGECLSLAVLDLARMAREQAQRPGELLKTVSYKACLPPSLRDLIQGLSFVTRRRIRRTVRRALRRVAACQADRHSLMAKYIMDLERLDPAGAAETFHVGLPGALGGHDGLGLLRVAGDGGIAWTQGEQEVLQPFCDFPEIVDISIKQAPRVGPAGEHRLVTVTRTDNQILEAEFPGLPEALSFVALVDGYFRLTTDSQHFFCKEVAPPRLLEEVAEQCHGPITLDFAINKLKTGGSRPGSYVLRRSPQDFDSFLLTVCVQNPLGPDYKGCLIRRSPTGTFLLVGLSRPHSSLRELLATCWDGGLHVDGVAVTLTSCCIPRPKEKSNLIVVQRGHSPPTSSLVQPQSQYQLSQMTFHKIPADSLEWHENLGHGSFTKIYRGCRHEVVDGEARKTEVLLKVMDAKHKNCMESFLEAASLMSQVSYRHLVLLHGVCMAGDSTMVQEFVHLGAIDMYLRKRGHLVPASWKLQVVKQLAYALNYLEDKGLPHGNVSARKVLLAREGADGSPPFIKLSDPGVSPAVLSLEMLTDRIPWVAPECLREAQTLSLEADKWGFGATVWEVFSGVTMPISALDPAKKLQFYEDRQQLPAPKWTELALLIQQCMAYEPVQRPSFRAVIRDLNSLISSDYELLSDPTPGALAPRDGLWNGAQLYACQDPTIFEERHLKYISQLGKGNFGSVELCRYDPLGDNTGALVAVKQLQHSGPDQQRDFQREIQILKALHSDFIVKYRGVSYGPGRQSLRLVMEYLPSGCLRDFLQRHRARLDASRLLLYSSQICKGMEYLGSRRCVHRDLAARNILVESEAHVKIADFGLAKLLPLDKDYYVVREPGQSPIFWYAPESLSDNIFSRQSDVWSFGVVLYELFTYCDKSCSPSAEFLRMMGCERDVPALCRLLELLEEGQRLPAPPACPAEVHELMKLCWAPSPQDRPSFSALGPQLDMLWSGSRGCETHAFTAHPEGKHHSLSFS
Summary of the method: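 Kinase at 2.5 nM with 10 µM Omnia Y7 peptide and 10 µM (Km app) or 1 mM ATP in 25 mM HEPES pH 7.4, 10 mM MgCl2, 1 mM DTT, 0.01% Triton X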

IC50 (Human Tyk2 kinase domain) | IC50 (JAK1) | IC50 (JAK2) | IC50 (JAK3) | SMILES
< 10 nM | 100 to 1000 nM | 10 to 100 nM | > 1000 nM | Cn1cc(-c2cc3nccn3c(-c3ccn(C4(CC#N)CN(CC(F)(F)F)C4)c3)n2)cn1 [Example 128, 2-(3-(3-(7-(1-Methyl-1H-pyrazol-4-yl)imidazo[1,2-c]pyrimidin-5-yl)-1H-pyrrol-1-yl)-1-(2,2,2-trifluoroethyl)azetidin-3-yl)acetonitrile]
100 to 1000 nM | > 1000 nM | > 1000 nM | > 1000 nM | Cn1cc(-c2cc3nccn3c(-c3ccn(C4(CC#N)CN(C(=O)OC(C)(C)C)C4)n3)n2)cn1 [Example 129, Tert-butyl 3-(cyanomethyl)-3-(3-(7-(1-methyl-1H-pyrazol-4-yl)imidazo[1,2-c]pyrimidin-5-yl)-1H-pyrazol-1-yl)azetidine-1-carboxylate]
100 to 1000 nM | > 1000 nM | 100 to 1000 nM | > 1000 nM | Cn1cc(-c2cc3nccn3c(-c3ccn(C4(CC#N)CNC4)n3)n2)cn1 [Example 130, 2-(3-(3-(7-(1-Methyl-1H-pyrazol-4-yl)imidazo[1,2-c]pyrimidin-5-yl)-1H-pyrazol-1-yl)azetidin-3-yl)acetonitrile hydrochloride]
10 to 100 nM | > 1000 nM | 100 to 1000 nM | > 1000 nM | Cn1cc(-c2cc3nccn3c(-c3ccn(C4(CC#N)CN(CC(F)(F)F)C4)n3)n2)cn1 [Example 131, 2-(3-(3-(7-(1-Methyl-1H-pyrazol-4-yl)imidazo[1,2-c]pyrimidin-5-yl)-1H-pyrazol-1-yl)-1-(2,2,2-trifluoroethyl)azetidin-3-yl)acetonitrile]
10 to 100 nM | > 1000 nM | 100 to 1000 nM | 100 to 1000 nM | Cn1cc(-c2cc3nccn3c(-c3ccn(C(CC#N)C4CC4)n3)n2)cn1 (stereo not shown) [Example 132, 3-Cyclopropyl-3-(3-(7-(1-methyl-1H-pyrazol-4-yl)imidazo[1,2-c]pyrimidin-5-yl)-1H-pyrazol-1-yl)propanenitrile]
100 to 1000 nM | > 1000 nM | 100 to 1000 nM | > 1000 nM | CC(=O)N1CCC(CC#N)(n2cc(-c3nc(-c4cnn(C)c4)cc4nccn34)cn2)C1 (stereo not shown) [Example 134, 2-(1-acetyl-3-(4-(7-(1-methyl-1H-pyrazol-4-yl)imidazo[1,2-c]pyrimidin-5-yl)-1H-pyrazol-1-yl)pyrrolidin-3-yl)acetonitrile]
< 10 nM | 10 to 100 nM | 10 to 100 nM | > 1000 nM | Cn1cc(-c2cc3nccn3c(-c3ccn(C4(CC#N)CN(S(=O)(=O)C5CC5)C4)c3)n2)cn1 [Example 136]

Second part, the compound before the results:

SMILES | IC50 (Human Tyk2 kinase domain) | IC50 (JAK1) | IC50 (JAK2) | IC50 (JAK3)
Cn1cc(-c2cc3nccn3c(-c3cnn(C4(CC#N)CCN(S(=O)(=O)C(F)(F)F)C4)c3)n2)cn1 (stereo not shown) [Example 133, 2-(3-(4-(7-(1-methyl-1H-pyrazol-4-yl)imidazo[1,2-c]pyrimidin-5-yl)-1H-pyrazol-1-yl)-1-(trifluoromethylsulfonyl)pyrrolidin-3-yl)acetonitrile] | < 10 nM | 10 to 100 nM | 10 to 100 nM | 100 to 1000 nM
Cn1cc(-c2cc3nccn3c(-c3cnn(C4(CC#N)CCN(CC(F)(F)F)C4)c3)n2)cn1 (stereo not shown) [Example 135, 2-(3-(4-(7-(1-methyl-1H-pyrazol-4-yl)imidazo[1,2-c]pyrimidin-5-yl)-1H-pyrazol-1-yl)-1-(2,2,2-trifluoroethyl)pyrrolidin-3-yl)acetonitrile] | 10 to 100 nM | 100 to 1000 nM | 10 to 100 nM | 100 to 1000 nM
CN1CCN(c2ccc(-c3cc4nccn4c(-c4cnn(C5(CC#N)CN(CC(F)(F)F)C5)c4)n3)cc2)CC1 [Example 137, 2-(3-(4-(7-(4-(4-methylpiperazin-1-yl)phenyl)imidazo[1,2-c]pyrimidin-5-yl)-1H-pyrazol-1-yl)-1-(2,2,2-trifluoroethyl)azetidin-3-yl)acetonitrile] | < 10 nM | 10 to 100 nM | 10 to 100 nM | 100 to 1000 nM
CN1CCN(c2ccc(-c3cc4nccn4c(-c4cnn(C5(CC#N)CN(S(=O)(=O)C(F)(F)F)C5)c4)n3)cc2)CC1 [Example 138, 2-(3-(4-(7-(4-(4-methylpiperazin-1-yl)phenyl)imidazo[1,2-c]pyrimidin-5-yl)-1H-pyrazol-1-yl)-1-(trifluoromethylsulfonyl)azetidin-3-yl)acetonitrile] | < 10 nM | 10 to 100 nM | 10 to 100 nM | 100 to 1000 nM
Cc1ncc(-c2cc3nccn3c(-c3cnn(C4(CC#N)CN(S(=O)(=O)C(F)(F)F)C4)c3)n2)s1 [Example 139, 2-(3-(4-(7-(2-methylthiazol-5-yl)imidazo[1,2-c]pyrimidin-5-yl)-1H-pyrazol-1-yl)-1-(trifluoromethylsulfonyl)azetidin-3-yl)acetonitrile] | < 10 nM | 10 to 100 nM | 10 to 100 nM | > 1000 nM
Cc1ncc(-c2cc3nccn3c(-c3cnn(C4(CC#N)CN(S(=O)(=O)C5CC5)C4)c3)n2)s1 [Example 140, 2-(1-(cyclopropylsulfonyl)-3-(4-(7-(2-methylthiazol-5-yl)imidazo[1,2-c]pyrimidin-5-yl)-1H-pyrazol-1-yl)azetidin-3-yl)acetonitrile] | < 10 nM | 10 to 100 nM | 10 to 100 nM | > 1000 nM
COc1ncc(-c2cc3nccn3c(-c3cnn(C4(CC#N)CN(S(=O)(=O)C5CC5)C4)c3)n2)cn1 [Example 141, 2-(1-(cyclopropylsulfonyl)-3-(4-(7-(2-methoxypyrimidin-5-yl)imidazo[1,2-c]pyrimidin-5-yl)-1H-pyrazol-1-yl)azetidin-3-yl)acetonitrile] | 10 to 100 nM | > 1000 nM | 100 to 1000 nM | > 1000 nM
COc1ncc(-c2cc3nccn3c(-c3cnn(C4(CC#N)CN(S(=O)(=O)C(F)(F)F)C4)c3)n2)cn1 [Example 142, 2-(3-(4-(7-(2-methoxypyrimidin-5-yl)imidazo[1,2-c]pyrimidin-5-yl)-1H-pyrazol-1-yl)-1-(trifluoromethylsulfonyl)azetidin-3-yl)acetonitrile] | 10 to 100 nM | > 1000 nM | > 1000 nM | > 1000 nM
CS(=O)(=O)CCn1cc(-c2cc3nccn3c(-c3ccn(C4(CC#N)CN(CC(F)(F)F)C4)n3)n2)cn1 [Example 143, 2-(3-(3-(7-(1-(2-(methylsulfonyl)ethyl)-1H-pyrazol-4-yl)imidazo[1,2-c]pyrimidin-5-yl)-1H-pyrazol-1-yl)-1-(2,2,2-trifluoroethyl)azetidin-3-yl)acetonitrile] | < 10 nM | 100 to 1000 nM | 10 to 100 nM | > 1000 nM
